One data set concerns the target T1, mAChR rM4 (Rattus norvegicus, UniProt P08485).
T1 construct: expressed in transfected cells
T1 sequence (P08485 1-478): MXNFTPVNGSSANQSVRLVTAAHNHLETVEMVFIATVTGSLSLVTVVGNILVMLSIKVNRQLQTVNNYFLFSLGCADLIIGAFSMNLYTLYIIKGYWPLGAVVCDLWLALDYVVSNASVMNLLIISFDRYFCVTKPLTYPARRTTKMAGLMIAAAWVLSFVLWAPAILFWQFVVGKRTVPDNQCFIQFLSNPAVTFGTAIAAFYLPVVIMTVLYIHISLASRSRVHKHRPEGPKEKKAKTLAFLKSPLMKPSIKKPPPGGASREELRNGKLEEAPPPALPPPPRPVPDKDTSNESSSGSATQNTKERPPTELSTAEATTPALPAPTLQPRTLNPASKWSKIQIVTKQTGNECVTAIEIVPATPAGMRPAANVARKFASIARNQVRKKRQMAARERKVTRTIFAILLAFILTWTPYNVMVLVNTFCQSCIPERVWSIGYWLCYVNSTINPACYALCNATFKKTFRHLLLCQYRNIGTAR
As to the kind of experiment: mAChR rM4 cell-based functional assay (calcium mobilization, potentiation of EC20 acetylcholine response). The following applies: for EC50: rM4-transfected CHO-K1 cells, positive allosteric modulation of EC20 ACh response, read-out: EC50; for Emax at 30 µM: %ACh maximum at 30 μM. The source says: Chinese hamster ovary (CHO-K1) cells stably expressing rat (r)M1 were purchased from the American Type Culture Collection and cultured according to their indicated protocol. CHO cells stably expressing human (h)M2, hM3, and hM5 were described previously (Levey A I, et al., (1991) J Neurosci 11:3218-3226.); hM1 and hM4 cDNAs were purchased from Missouri S&T cDNA Resource; rM4 cDNA was provided by T. I. Bonner (National Institutes of Health, Bethesda, Md.). rM2 and rM3 were cloned from a rat brain cDNA library and sequence verified. hM1, rM2, rM3, hM4, and rM4 cDNAs were used to stably transfect CHO-K1 cells purchased from the American Type Culture Collection using Lipofectamine® 2000. To make stable rM2, hM2, rM3, hM4, and rM4 cell lines for use in calcium mobilization assays, these cells also were stably transfected with a chimeric G-protein (Gqi5) (provided by B. R. Conklin, University of California, San Francisco) using Lipofectamine® 2000. rM1, hM1, rM3, hM3, rM5, and hM5 cells were grown in Ham's F-12 medium containing 10% heat-inactivated fetal bovine serum (FBS), 20 mM HEPES, and 50 μg/mL G418 sulfate. rM2-Gqi5, hM2-Gqi5, and hM4-Gqi5 cells were grown in the same medium also containing 500 μg/mL hygromycin B. Stable rM4-Gqi5 cells were grown in DMEM containing 10% heat-inactivated FBS, 20 mM HEPES, 400 μg/mL G418 sulfate, and 500 μg/mL Hygromycin B.
For high throughput measurement of agonist-evoked increases in intracellular calcium, CHO-K1 cells stably expressing the target muscarinic receptor were plated in growth medium lacking G418 and hygromycin at 15,000 cells/20 μL/well in Greiner 384-well black-walled, tissue culture (TC)-treated, clear-bottom plates (VWR). Cells were incubated overnight at 37° C. and 5% CO2. The next day, cells were washed using an ELX 405 (BioTek) with four washes (80 μL) of assay buffer then aspirated to 20 μL. Next, 20 μL of 16 μM Fluo-4/acetoxymethyl ester (Invitrogen, Carlsbad, Calif.) prepared as a 2.3 mM stock in DMSO and mixed in a 1:1 ratio with 10% (w/v) Pluronic F-127 and diluted in assay buffer was added to the wells and the cell plates were incubated for […] at 37° C. and 5% CO2. Dye was removed by washing with the ELX 405 (four 80 μL washes of assay buffer) then aspirated to 20 μL. Compound master plates were formatted in an 11 point CRC format (1:3 dilutions) in 100% DMSO with a starting concentration of 10 mM using the BRAVO liquid handler (Agilent). Test compound CRCs were then transferred to daughter plates (240 nL) using the Echo acoustic plate reformatter (Labcyte, Sunnyvale, Calif.) and then diluted into assay buffer (40 μL) to a 2× stock using a Thermo Fisher Combi (Thermo Fisher Scientific, Waltham, Mass.).
Calcium flux was measured using the Functional Drug Screening System (FDSS) 6000 (Hamamatsu Corporation, Tokyo, Japan) as an increase in the fluorescent static ratio. Compounds were applied to cells (20 μL, 2×) using the automated system of the FDSS 6000 at 4 s into the 300 s protocol and the data were collected at 1 Hz. At 144 s into the 300 s protocol, 10 μL of an EC20 concentration of the muscarinic receptor agonist acetylcholine was added (5×), followed by the addition of 12 μL an EC80 concentration of acetylcholine at the 230 s time point (5×). Agonist activity was analyzed as a concentration-dependent increase in calcium mobilization upon compound addition. Positive allosteric modulator activity was analyzed as a concentration-dependent increase in the EC20 acetylcholine response. Antagonist activity was analyzed as a concentration-dependent decrease in the EC80 acetylcholine response. Concentration-response curves were generated using a four-parameter logistical equation in XLfit™ curve fitting software (IDBS, Bridgewater, N.J.) for Excel (Microsoft, Redmond, Wash.) or Prism (GraphPad Software, Inc., San Diego, Calif.). […]

For data set [1] the following is noted: patients treated with AChE inhibitor; cited from earlier work.
The conditions of data set [2]: cited from earlier work.
For data set [3] the following is noted: Alzheimer's disease patients; cited from earlier work.

Consider five compounds from patent US9056875B2, “Substituted pyrazolo[3′,4′:4,5]thieno[2,3-C]pyridazin-3-amine analogs as positive allosteric modulators of the muscarinic acetylcholine receptor M4” (Vanderbilt University, priority 2012, dated 2015).

Some results are limits rather than exact numbers.

What is called EC50 is the midpoint of the concentration-response curve. As for `Cc1nnc2sc3c(NCC4CCNCC4)nn(C)c3c2c1C` [Compound 22, 1,7,8-trimethyl-N-(piperidin-4-ylmethyl)-1H-pyrazolo[3′,4′:4,5]thieno[2,3-c]pyridazin-3-amine], the EC50 at mAChR rM4 is above 10 µM.

For orientation: Emax means the greatest response seen or fitted, relative to the assay's reference. As for `CC(=O)N1CCC(CNc2nn(C)c3c2sc2nnc(C)c(C)c23)CC1` [Compound 23, 1-(4-(((1,7,8-trimethyl-1H-pyrazolo[3′,4′:4,5]thieno[2,3-c]pyridazin-3-yl)amino)methyl)piperidin-1-yl)ethanone], on mAChR rM4, the Emax at 30 µM stood at 44% and the EC50 worked out at 1.8 µM.

With `Cc1nnc2sc3c(NCC4CCN(S(C)(=O)=O)CC4)nn(C)c3c2c1C` [Compound 24, 1,7,8-trimethyl-N-((1-(methylsulfonyl)piperidin-4-yl)methyl)-1H-pyrazolo[3′,4′:4,5]thieno[2,3-c]pyridazin-3-amine], at mAChR rM4, the Emax at 30 µM came to 61% and the EC50 came out at 2.5 µM.

Regarding `Nc1c2c(nc3ccccc13)CCCC2` [tacrine], the “hepatotoxicity with elevated liver transaminases observed in patients” value in data set [1] is listed as “about 30 % of patients”.

On to `CCCCCCOc1nsnc1C1=CCCN(C)C1` [xanomeline], for which the catalepsy result in data set [2] (animal models) is recorded as “without causing catalepsy”. Moreover, in data set [2] (compared with known antipsychotic drugs), the “activity in animal models” value is “active in animal models with similar profiles to known antipsychotic drugs”. Moreover, in data set [3], the “psychotic behavioral symptoms such as delusions, suspiciousness, vocal outbursts, and hallucinations” value is “reduce psychotic behavioral symptoms”; the “treatment induced side effects” value is “gastrointestinal effects”.
